One assay deals with SKBR-3 cells. Nature of the assay: MTT cell viability assay with SKBR-3 cells. Type of assay: cell-based. As to conditions: Homo sapiens, SK-BR-3. On the procedure: SKBR-3 cells were obtained from ATCC (Rockville, Md.). […] Bovine serum was heat inactivated for 30 min in a 56° C. water bath before use. Cell cultures were grown at 37° C., in a humidified atmosphere of 5% CO2 in a Hereaus CO2 incubator. For all experiments, cells were seeded in 96 well plates with 5000 cells/well density.
Cells were grown in custom medium in 96-well, flat-bottomed plates for 24 h, and were exposed to various concentrations of nimesulide derivatives dissolved in DMSO (final concentration≦0.1%) in media for different time intervals. Controls received DMSO vehicle at a concentration equal to that in drug-treated cells. […] Supernatants were removed from the wells, and the reduced 3-(4,5-dimethylthiazol-2-yl)-2,5-diphenyl-2H-tetrazolium bromide dye was solubilized in 200 μl/well DMSO. Absorbance at 570 nm was determined on a plate reader.

Another assay deals with cells. The assay is described as follows: Primary mechanism study: cell viability with compound #10 and 2-APB (FIG. 10). Type of assay: cell-based. The following applies: 2-APB added two hours before compound #10; cell viability after 48 hours.
[1] abbreviates: SKBR-3 cells, cell viability, read-out: IC50.

In general, IC50 refers to the point on the concentration scale where inhibition reaches its midpoint.

SMILES strings stand for the structures. Where two headings read alike, the source gives them in different places.

As to `COc1ccc(OC)c(COc2cc(NC(=O)c3ccc(OC)c(OC)c3)ccc2N(C)S(C)(=O)=O)c1` [Compound #44, N-[3-(2,5-dimethoxyl-benzyloxy)-4-(methanesulfonyl-methyl-amino)-phenyl]-3,4-dimethoxy-benzamide], the IC50 with SKBR-3 cells (setting [1]) was 2.6 ± 1.3 nM.

Regarding `NCCOB(c1ccccc1)c1ccccc1` [Compound 2-APB, 2-aminoethoxydiphenyl borate, reference compound], the “rescue of cell death from compound #10 treatment (cell viability)” value in the assay on cells is “can partially rescue the cell death from compound #10 treatment”. Turning to `COc1ccc(C(=O)Nc2ccc(N(C)S(C)(=O)=O)c(OCc3cc(OC)ccc3OC)c2)cc1` [Compound #41, N-[3-(2,5-dimethoxy-benzyloxy)-4-(methanesulfonyl-methyl-amino)-phenyl]-4-methoxy-benzamide], the IC50 with SKBR-3 cells (setting [1]) stood at 0.87 ± 0.33 nM.

As for `COc1ccc(OC)c(COc2cc(NC(=O)c3ccc4ccccc4c3)ccc2N(C)S(C)(=O)=O)c1` [Compound #45, N-[3-(2,5-dimethoxyl-benzyloxy)-4-(methanesulfonyl-methyl-amino)-phenyl]-2-naphthalenecarboxamide], the IC50 in the assay with SKBR-3 cells (setting [1]) worked out at 16.6 ± 7.7 nM. Consider `COc1ccc(OC)c(COc2cc(NC(=O)c3ccc(I)cc3)ccc2N(C)S(C)(=O)=O)c1` [Compound #40, N-[3-(2,5-dimethoxyl-benzyloxy)-4-(methanesulfonyl-methyl-amino)-phenyl]-4-iodo-benzamide], for which, in the assay on SKBR-3 cells (setting [1]), the IC50 was found to be 1.8 ± 0.7 nM. `COc1ccc(OC)c(COc2cc(NC(=O)c3ccc4c(c3)OCO4)ccc2N(C)S(C)(=O)=O)c1` [Compound #43, N-[3-(2,5-dimethoxyl-benzyloxy)-4-(methanesulfonyl-methyl-amino)-phenyl]-1,3-benzodioxole-5-carboxamide]: the IC50 in the assay on SKBR-3 cells is 7.5 ± 2.8 nM. The same measure, in the same setting: the value for `COc1ccc(OC)c(COc2cc(NC(=O)c3ccc(Br)cc3)ccc2N(C)S(C)(=O)=O)c1` [Compound #42, N-[3-(2,5-dimethoxy-benzyloxy)-4-(methanesulfonyl-methyl-amino)-phenyl]-4-bromobenzamide] was 3.5 ± 1.9 nM.

The values above are taken from patent US8802895B2, “Amide derivatives of benzene-sulfonanilide, pharmaceutical composition thereof and method for cancer treatment using the same” (Cleveland State University, priority 2010, dated 2014).
